US12071436B2, “Anti-parasitic compounds and uses thereof” (Memorial Sloan-Kettering Cancer Center, priority 2016, dated 2024)
Like-named read-outs stand apart in the source and are kept apart here.

Key:
[1] = tested on: Trypanosoma cruzi parasites; assay: Trypanosoma cruzi in vitro IC50 (structure-activity analyses); assay type: cell-based; conditions: infection with Trypanosoma cruzi parasites for 72 hours and treatment with the compound for 72 hours
Experimental: Select compounds described herein were evaluated for structure-activity analyses in vitro.

[2] = Cytotoxicity (Table 1); assay type: cell-based
[3] = Plasma stability; assay type: in vitro ADME; conditions: C57BL/6; 10 μM in undiluted mouse plasma, 37° C., out to four hours; read-out: plasma stability (t1/2, mouse)
Experimental: To evaluate the plasma stability of selected compounds, 10 μM of each selected compound was incubated with undiluted plasma. Plasma was freshly obtained from C57BBl\6 mice drawn in the vivarium and used immediately. Plasma was brought to 37° C. within a 96-well plate and then the compound is introduced via a DMSO stock solution. The sample was continually shaken at 37° C. and aliquots are removed at multiple time points out to four hours. Aliquots were added to acetonitrile (5× v:v) to stop any enzymatic activity and held on ice. At the end of the assay, the samples were centrifuged through a Millipore Multiscreen Solvinter 0.45 micron low binding PTFE hydrophilic filter plate and analyzed by LC-MS/MS. Data was log transformed and represented as half-life.

[4] = Metabolic stability in mice liver microsomes (MLM), 0.25 mg/mL; assay type: in vitro ADME; conditions: mouse, pH 7.4, 1 μM compound, 0.25 mg/mL microsomes, NADPH, read-out: microsomal stability (t1/2, mouse): 0.25 mg/mL hepatic microsomes
Experimental: To evaluate the metabolic stability of compounds 21 and 37 in mice liver microsomes (MLM), a 1120 μL aliquot of potassium phosphate buffer (50 mM, pH 7.4) containing mice liver microsomes (0.357 mg/mL) was added to individual 2 mL tubes (final concentration 0.25 mg/mL). Imipramine in MLM was run as positive controls. Test compounds (compound 21 or compound 37) and positive control compounds (1 mM DMSO stocks) were directly spiked into respective tubes to prepare a concentration of 1.428 μM (final concentration 1 μM). From the above mix, 70 μL was added to individual wells of 96 well reaction plates and pre-incubated in a 37° C. water bath for 5 min. All the reactions were initiated by adding 30 μL of 3.33 mM NADPH (final concentration 1 mM). Reactions without NADPH and heat inactivated microsomes minus NADPH (0 min and 60 min) were also incubated to rule out non-NADPH metabolism or chemical instability in the incubation buffer. All reactions were terminated using 100 μL of ice-cold acetonitrile containing internal standard (glipizide—2 μM) at 0, 5, 15 and 60 min. The plates were centrifuged at 4000 RPM for 15 min and 100 μL aliquots were submitted for analysis by LC-M/MS. Samples were monitored for parent compound disappearance in Multiple reaction monitoring (MRM) mode using LC-MS/MS.

[5] = tested on: HepG2; assay: Cytotoxicity screening in HepG2 (CellTiter Glo, fluorescence microscopy); assay type: cell-based; conditions: Homo sapiens, 48 hours
Experimental: To evaluate the cytotoxicity of selected compounds, cell viability assays (CellTiter Glo) were conducted. Each compound (compound 21 or compound 37) was plated in triplicate starting at their respective stock concentration. They were serially diluted column-wise for ten 3× dilutions using DMSO as the diluent. Staurosporine was used as positive control for DRC (dose response curve), and was plated starting at 1.25 mM. This plate was used as a source plate to make the assay plates by transferring 0.1 μl into 25 μl assay volume to reach the right working concentration for each compound. HepG2 and MRC5 were plated at a density of 1500 cells/25 μl in well in the assay plate and allowed to settle overnight. 0.1 μL of compounds was then transferred from the source plate, into the cell assay plates. The cells were left to incubate with the compounds for 48 hours, after which, 25 μL of Promega Cell Titer-Glo was added to each well, and allowed to incubate at room temperature with shaking for 20 minutes. RLU's (Relative Light Units) for each well were then recorded on a BioTek Synergy NEO. Fluorescence microscopy was also used to evaluate the cytotoxicity of selected compounds. Cells were plated at a density of 1500 cells/25 μl in well in a 384 wells plate the day before incubation with the drugs. The following day, 0.1 μl of the source plate are added to the assay plate. Then, 25 μl of a fluorophores mixture containing Hoechst 33342, Syto17 diluted in Eagle's Minimum Essential Medium (EMEM) was added to each well. Plates are read after 48 hours of incubation in the ImageXpress instrument (Molecular Devices) using the appropriate filters.

[6] = Plasma pharmacokinetics in female BALB/c mice (ip and po); assay type: in vivo, mouse; conditions: 50 mg/kg; for bioavailability / AUC / Cmax / half-life: female, BALB/c, mice; for bioavailability / AUC / Cmax / half-life / Tmax: mouse, plasma; for bioavailability: oral, read-out: Relative Bioavailability, Frel (po/ip); for Tmax / plasma concentrations quantifiable till: female BALB/c mice
Experimental: To evaluate the plasma pharmacokinetics of selected compounds, a group of eighteen female mice were administered divided into two groups; Group 1 (intraperitoneal (i.p.)) and Group 2 (oral administration (p.o.)) with compound 21 or compound 37 solution formulation at a dose of 50 mg/kg by both the routes in 5% NMP, 5% Solutol and 90% Normal saline. Blood samples (approximately […]) were collected from retro orbital plexus of each mouse under light isoflurane anesthesia such that the samples were obtained at 0.083, 0.25, 0.5, 1, 2, 4, 8, 12 and 24 hours (i.p.); and pre-dose, 0.25, 0.5, 1, 2, 4, 8, 12 and 24 hour (p.o.). The blood samples were collected from a set of three mice at each time point in labeled micro centrifuge tube containing K2EDTA as anticoagulant. Plasma samples were separated by centrifugation at 4000 rpm for 10 min and stored below −70° C. until bioanalysis. After collection of blood sample, animals were humanely euthanized by carbon dioxide asphyxiation to collect liver and heart from Group 1 and Group 2 at 1, 8 and 24 hours. The collected tissues were rinsed in PBS and were homogenized with cold phosphate buffer saline (pH 7.4) of nine times the weight of liver and two times the weight of heart tissue and stored below −70° C. until bio-analysis. Total volume was ten and three times the tissue weights of liver and heart, respectively. All samples were processed for analysis by protein precipitation using acetonitrile and analyzed with fit-for-purpose LC-MS/MS method (LLOQ: 1.01 ng/mL for plasma; 20.20 ng/g for liver and 6.06 ng/g for heart tissue). […] Exemplary results for compounds 21 (2015-FoleyC-021) and 37 (2015-FoleyC-037) are shown above in Table 2.

[7] = read-out: HepG2 IC50, Cell Count
[8] = read-out: HepG2 IC50, Cellular ATP
[9] = read-out: HepG2 IC50, Membrane Integrity
[10] = ip, read-out: PK (ip, 50 mg/kg) Area under the curve (AUC)
[11] = ip, read-out: PK (ip, 50 mg/kg) Cmax
[12] = ip, read-out: PK (ip, 50 mg/kg) t1/2 (converted)
[13] = po, read-out: PK (po, 50 mg/kg) AUC
[14] = po, read-out: PK (po, 50 mg/kg) Cmax
[15] = po, read-out: PK (po, 50 mg/kg) t1/2 (converted)
[16] = ip, single intraperitoneal dose

Structure (SMILES) | IC50 [1] | Cytotoxicity [2] | half-life at 10 μM [3] | half-life at 1 μM [4] | IC50 [5, 7] | IC50 [5, 8] | IC50 [5, 9] | bioavailability [6] | AUC [6, 10] | Cmax [6, 11] | half-life [6, 12] | AUC [6, 13] | Cmax [6, 14] | half-life [6, 15] | Tmax [6, 16] | Tmax ([6]; single oral dose) | plasma concentrations quantifiable till ([6]; single intraperitoneal dose) | plasma concentrations quantifiable till ([6]; single oral dose)
CN(C)CC#Cc1cccc(-c2nc(C(=O)NCc3ccc4c(c3)OCO4)cc3c2[C@@H](CCO)N([S@+]([O-])C(C)(C)C)C3)c1 [compound 21, (R)-N-(Benzo[d][1,3]dioxol-5-ylmethyl)-2-((R)-tert-butylsulfinyl)-4-(3-(3-(dimethyl-amino)prop-1-yn-1-yl)phenyl)-3-(2-hydroxyethyl)-2,3-dihydro-1H-pyrrolo[3,4-c]pyridine-6-carboxamide] | 0.054 µM | >10 µM | > 4 h | 0.767 h | 51.3 µM | 52.5 µM | 62.1 µM | 48% | 50.1 µM·h | 19.8 µM | 2.8 h | 24.3 µM·h | 11.8 µM | 3.5 h | 0.25 h | 1 h | 24 h | 24 h
CN(C)CC#Cc1cccc(-c2nc(C(=O)N[C@@H]3CCN(Cc4ccccc4)C3)cc3c2[C@@H](CCO)N([S@+]([O-])C(C)(C)C)C3)c1 [compound 37, (R)-N-((R)-1-Benzylpyrrolidin-3-yl)-2-((R)-tert-butylsulfinyl)-4-(3-(3-(dimethylamino)prop-1-yn-1-yl)phenyl)-3-(2-hydroxyethyl)-2,3-dihydro-1H-pyrrolo[3,4-c]pyridine-6-carboxamide] | 0.048 µM | >10 µM | > 4 h | 0.217 h | 56.2 µM | 54.2 µM | 90.6 µM | 47% | 11.1 µM·h | 6.8 µM | 6.3 h | 5.2 µM·h | 1.7 µM | 4.3 h | 0.25 h | 1 h | 24 h | 24 h
